Results reported in ChEMBL document CHEMBL1148552, “Pulvinones as bacterial cell wall biosynthesis inhibitors” (Bioorg Med Chem Lett, 2006).
Converted amounts (≈) assume the structure as drawn.

How the values were obtained:
Enterococcus faecalis [1] = test: Antibacterial activity against vancomycin resistant Enterococcus faecalis; assay type: functional; details: GC 2242
[2] = biological target: T1, UDP-N-acetylmuramoylalanine--D-glutamate ligase (Escherichia coli K-12, UniProt P14900); test: Inhibitory activity against MurD in Escherichia coli
T1 sequence (P14900 whole entry): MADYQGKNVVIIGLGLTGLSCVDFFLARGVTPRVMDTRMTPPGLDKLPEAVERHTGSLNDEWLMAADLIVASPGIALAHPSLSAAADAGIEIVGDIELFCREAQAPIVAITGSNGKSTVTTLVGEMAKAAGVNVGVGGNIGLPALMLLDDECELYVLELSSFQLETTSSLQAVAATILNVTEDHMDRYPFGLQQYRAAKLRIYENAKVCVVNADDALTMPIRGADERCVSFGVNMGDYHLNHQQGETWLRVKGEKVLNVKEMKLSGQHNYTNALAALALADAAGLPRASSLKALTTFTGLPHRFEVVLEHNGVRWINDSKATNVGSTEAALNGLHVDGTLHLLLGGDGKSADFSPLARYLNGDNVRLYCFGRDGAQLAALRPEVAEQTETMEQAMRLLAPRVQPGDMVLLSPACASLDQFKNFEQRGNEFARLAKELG

Staphylococcus aureus [3] = test: Antibacterial activity against methicillin resistant Staphylococcus aureus; assay type: functional; details: GC 1131
Enterococcus faecalis [4] = test: Antibacterial activity against Enterococcus faecalis; assay type: functional; details: GC 4555
[5] = biological target: T2, UDP-N-acetylenolpyruvoylglucosamine reductase (Escherichia coli K-12, UniProt P08373); test: Inhibitory activity against MurB in Escherichia coli
T2 sequence (P08373 whole entry): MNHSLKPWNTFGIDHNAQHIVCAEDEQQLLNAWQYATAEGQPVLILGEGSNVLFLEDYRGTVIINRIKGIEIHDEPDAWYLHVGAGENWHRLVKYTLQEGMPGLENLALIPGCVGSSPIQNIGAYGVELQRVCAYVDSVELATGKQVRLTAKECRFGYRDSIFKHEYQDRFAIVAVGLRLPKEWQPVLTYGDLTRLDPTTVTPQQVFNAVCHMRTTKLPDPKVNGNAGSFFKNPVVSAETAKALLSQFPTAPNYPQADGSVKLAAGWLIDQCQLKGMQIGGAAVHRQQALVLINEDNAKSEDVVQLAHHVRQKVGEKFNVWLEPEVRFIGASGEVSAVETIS

Streptococcus pneumoniae = test: Antibacterial activity against penicillin resistant Streptococcus pneumoniae; assay type: functional; details: GC 1894
Staphylococcus aureus [6] = test: Antibacterial activity against Staphylococcus aureus; assay type: functional; details: GC 4543
[7] = biological target: UDP-N-acetylglucosamine 1-carboxyvinyltransferase (Escherichia coli K-12, UniProt P0A749); test: Inhibitory activity against MurA in Escherichia coli
UDP-N-acetylglucosamine 1-carboxyvinyltransferase, sequence (P0A749 whole entry): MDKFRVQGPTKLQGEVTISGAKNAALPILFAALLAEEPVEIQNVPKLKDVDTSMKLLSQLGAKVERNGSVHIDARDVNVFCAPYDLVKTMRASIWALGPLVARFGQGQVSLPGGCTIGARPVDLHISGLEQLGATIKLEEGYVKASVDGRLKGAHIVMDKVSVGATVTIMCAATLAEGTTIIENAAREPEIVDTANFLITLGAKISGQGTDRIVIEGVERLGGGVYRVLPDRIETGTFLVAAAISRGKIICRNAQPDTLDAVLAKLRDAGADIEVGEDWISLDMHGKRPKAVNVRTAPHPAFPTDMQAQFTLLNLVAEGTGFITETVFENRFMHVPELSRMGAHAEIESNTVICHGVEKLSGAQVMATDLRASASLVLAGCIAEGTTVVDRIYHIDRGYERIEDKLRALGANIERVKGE

[8] = biological target: T3, UDP-N-acetylmuramate--L-alanine ligase (Staphylococcus aureus, UniProt O31211); test: Inhibitory activity against MurC in Staphylococcus aureus
T3 sequence (O31211 whole entry): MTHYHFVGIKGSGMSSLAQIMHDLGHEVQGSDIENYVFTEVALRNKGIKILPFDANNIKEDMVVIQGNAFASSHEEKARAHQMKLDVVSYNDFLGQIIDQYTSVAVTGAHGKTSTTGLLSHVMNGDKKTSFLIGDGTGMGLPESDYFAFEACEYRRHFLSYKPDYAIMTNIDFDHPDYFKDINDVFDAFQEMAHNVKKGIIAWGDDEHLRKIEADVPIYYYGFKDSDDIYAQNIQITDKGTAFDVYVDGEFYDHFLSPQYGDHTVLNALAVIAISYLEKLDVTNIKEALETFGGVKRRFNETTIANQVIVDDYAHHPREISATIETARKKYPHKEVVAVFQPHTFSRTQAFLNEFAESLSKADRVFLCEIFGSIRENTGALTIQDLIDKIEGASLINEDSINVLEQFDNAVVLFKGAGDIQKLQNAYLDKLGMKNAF

[9] = biological target: T4, UDP-N-acetylmuramoylalanine--D-glutamate ligase (Staphylococcus aureus, UniProt P0A091); test: Inhibitory activity against MurD in Staphylococcus aureus
T4 sequence (P0A091 whole entry): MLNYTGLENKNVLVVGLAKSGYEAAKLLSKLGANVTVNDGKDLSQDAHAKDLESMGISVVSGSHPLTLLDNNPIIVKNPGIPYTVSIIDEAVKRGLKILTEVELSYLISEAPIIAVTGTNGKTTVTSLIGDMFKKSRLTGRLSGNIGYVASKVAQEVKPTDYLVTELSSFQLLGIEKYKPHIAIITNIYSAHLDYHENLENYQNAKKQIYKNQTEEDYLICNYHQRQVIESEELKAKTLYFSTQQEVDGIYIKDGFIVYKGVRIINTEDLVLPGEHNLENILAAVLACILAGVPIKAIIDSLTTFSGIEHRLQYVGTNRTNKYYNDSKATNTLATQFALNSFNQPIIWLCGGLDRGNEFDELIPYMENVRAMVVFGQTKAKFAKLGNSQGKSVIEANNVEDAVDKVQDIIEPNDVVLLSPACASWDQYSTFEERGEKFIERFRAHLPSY

[10] = biological target: UDP-N-acetylmuramate--L-alanine ligase (Escherichia coli K-12, UniProt P17952); test: Inhibitory activity against MurC in Escherichia coli
UDP-N-acetylmuramate--L-alanine ligase (Escherichia coli K-12, UniProt P17952), sequence (P17952 whole entry): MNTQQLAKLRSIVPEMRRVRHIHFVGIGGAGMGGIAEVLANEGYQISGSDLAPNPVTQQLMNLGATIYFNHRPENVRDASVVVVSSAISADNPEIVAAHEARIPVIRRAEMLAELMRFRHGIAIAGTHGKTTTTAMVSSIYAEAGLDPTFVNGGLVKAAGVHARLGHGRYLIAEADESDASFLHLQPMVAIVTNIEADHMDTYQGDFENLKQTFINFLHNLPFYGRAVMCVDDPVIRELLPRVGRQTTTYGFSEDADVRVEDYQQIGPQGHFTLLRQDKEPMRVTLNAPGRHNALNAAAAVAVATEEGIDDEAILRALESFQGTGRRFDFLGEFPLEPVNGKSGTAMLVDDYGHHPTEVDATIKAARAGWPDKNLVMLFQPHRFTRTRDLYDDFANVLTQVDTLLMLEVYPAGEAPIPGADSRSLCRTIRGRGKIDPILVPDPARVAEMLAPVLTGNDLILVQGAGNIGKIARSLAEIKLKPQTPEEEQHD

SMILES | MIC (Enterococcus faecalis [1]) [µg/mL] | IC50 [2] [µM] | MIC (Staphylococcus aureus [3]) [µg/mL] | MIC (Enterococcus faecalis [4]) [µg/mL] | IC50 [5] [µM] | MIC (Streptococcus pneumoniae) [µg/mL] | MIC (Staphylococcus aureus [6]) [µg/mL] | IC50 [7] [µM] | IC50 [8] [µM] | IC50 [9] [µM] | IC50 [10] [µM]
O=C1O/C(=C\c2ccc(-c3ccccc3)cc2)C(O)=C1c1cccc2ccccc12 | 8 (≈ 20.5 µM) | > 64 | 8 (≈ 20.5 µM) | 32 (≈ 82 µM) | > 64 | 4 (≈ 10.2 µM) | 4 (≈ 10.2 µM) |  |  |  | 
O=C1O/C(=C\c2cccc3ccccc23)C(O)=C1c1ccc(Cl)cc1 | 8 (≈ 22.9 µM) | > 71.7 | 8 (≈ 22.9 µM) | 16 (≈ 45.9 µM) |  | 0.5 (≈ 1.43 µM) | 8 (≈ 22.9 µM) | > 71.7 |  |  | 
O=C1O/C(=C\c2ccc(-c3cc(Cl)cc(Cl)c3)cc2)C(O)=C1c1cc(Cl)cc(Cl)c1 | 0.5 (≈ 1.05 µM) |  | 4 (≈ 8.37 µM) | 1 (≈ 2.09 µM) |  | ≤ 0.12 | 0.5 (≈ 1.05 µM) |  |  |  | 
Cc1cc(/C=C2\OC(O)=C(c3cccc(Cl)c3)C2=O)ccc1-c1ccccc1C(F)(F)F | 2 (≈ 4.38 µM) |  | 2 (≈ 4.38 µM) | 4 (≈ 8.76 µM) | 6.57 | ≤ 0.12 | 1 (≈ 2.19 µM) | 8.76 | 32.8 | 26.3 | 
COc1ccc(C2=C(O)O/C(=C\c3cccc4ccccc34)C2=O)cc1 | 32 (≈ 92.9 µM) | > 72.6 | 32 (≈ 92.9 µM) | > 128 | > 72.6 | 8 (≈ 23.2 µM) | 64 (≈ 186 µM) | > 72.6 |  |  | 46.5
COc1cc(/C=C2\OC(O)=C(c3cc(Cl)cc(Cl)c3)C2=O)ccc1-c1ccccc1C(F)(F)F | 1 (≈ 1.97 µM) |  | 0.5 (≈ 0.986 µM) | 2 (≈ 3.94 µM) | 3.94 | 0.5 (≈ 0.986 µM) | 0.5 (≈ 0.986 µM) | 7.89 | 39.4 | 33.5 | 
O=C1O/C(=C\C2CCCCC2)C(O)=C1c1cccc(C(F)(F)F)c1 | 32 (≈ 94.6 µM) | > 73.9 | 32 (≈ 94.6 µM) | 64 (≈ 189 µM) | > 73.9 | ≤ 0.12 | > 128 | > 73.9 |  |  | 
O=C1O/C(=C\c2cccc(C(F)(F)F)c2)C(O)=C1c1ccc(-c2ccccc2)c(F)c1 | 0.25 (≈ 0.586 µM) | > 58.6 | 2 (≈ 4.69 µM) | 1 (≈ 2.35 µM) |  | 0.25 (≈ 0.586 µM) | 2 (≈ 4.69 µM) | 23.5 |  |  | 18.8
O=C1O/C(=C\c2cccc(C(F)(F)F)c2)C(O)=C1c1ccc2ccccc2c1 | 8 (≈ 20.9 µM) | > 65.4 | 8 (≈ 20.9 µM) | 32 (≈ 83.7 µM) |  | 8 (≈ 20.9 µM) | 8 (≈ 20.9 µM) |  |  |  | 
O=C1O/C(=C\c2cccc(C(F)(F)F)c2Cl)C(O)=C1c1ccc(-c2ccccc2)c(F)c1 | 0.5 (≈ 1.09 µM) |  | 1 (≈ 2.17 µM) | 2 (≈ 4.34 µM) |  | 0.25 (≈ 0.543 µM) | 1 (≈ 2.17 µM) |  |  |  | 
O=C1O/C(=C\c2cccc(C(F)(F)F)c2)C(O)=C1c1ccc(Cl)cc1 | 8 (≈ 21.8 µM) | > 68.2 | 16 (≈ 43.6 µM) | 16 (≈ 43.6 µM) | 24.5 | 1 (≈ 2.73 µM) | 8 (≈ 21.8 µM) | 38.2 |  |  | 16.4
O=C1O/C(=C\c2cccc(C(F)(F)F)c2)C(O)=C1c1ccc(-c2ccccc2)cc1 | 4 (≈ 9.79 µM) | > 61.2 | 4 (≈ 9.79 µM) | 8 (≈ 19.6 µM) | 12.2 | 0.5 (≈ 1.22 µM) | 4 (≈ 9.79 µM) |  |  |  | 
O=C1O/C(=C\c2cc(C(F)(F)F)ccc2Cl)C(O)=C1c1ccc(-c2ccccc2)c(F)c1 | 1 (≈ 2.17 µM) |  | 1 (≈ 2.17 µM) | 4 (≈ 8.68 µM) |  | 0.25 (≈ 0.543 µM) | 1 (≈ 2.17 µM) |  |  |  | 
O=C1O/C(=C\c2ccc(-c3ccccc3)cc2)C(O)=C1c1ccc2ccccc2c1 | 4 (≈ 10.2 µM) | > 64 | 16 (≈ 41 µM) | 8 (≈ 20.5 µM) |  | 2 (≈ 5.12 µM) | 4 (≈ 10.2 µM) | > 64 |  |  | 
O=C1O/C(=C\c2ccc(Cl)cc2)C(O)=C1c1ccc(-c2ccccc2)cc1 | 4 (≈ 10.7 µM) | > 66.7 | 16 (≈ 42.7 µM) | 8 (≈ 21.3 µM) |  | 1 (≈ 2.67 µM) | 16 (≈ 42.7 µM) | > 66.7 |  |  | 
Cc1ccccc1-c1ccc(/C=C2\OC(O)=C(c3cc(Cl)cc(Cl)c3)C2=O)cc1C | 0.5 (≈ 1.14 µM) |  | 0.5 (≈ 1.14 µM) | 2 (≈ 4.57 µM) | 2.29 | ≤ 0.12 | 0.5 (≈ 1.14 µM) | 4.57 | 52.6 | 20.6 | 
O=C1O/C(=C\c2cc(C(F)(F)F)ccc2F)C(O)=C1c1ccc(-c2ccccc2)c(F)c1 | 2 (≈ 4.5 µM) |  | 2 (≈ 4.5 µM) | 2 (≈ 4.5 µM) |  | 0.5 (≈ 1.13 µM) | 2 (≈ 4.5 µM) |  |  |  | 
O=C1O/C(=C(/C(=O)Nc2cccc(C(F)(F)F)c2)c2ccccc2)C(O)=C1c1ccccc1 |  |  |  |  |  |  |  |  |  |  | 17.7
O=C1O/C(=C\c2ccc3ccccc3c2)C(O)=C1c1cccc(C(F)(F)F)c1 | 4 (≈ 10.5 µM) | > 65.4 | 8 (≈ 20.9 µM) | 16 (≈ 41.8 µM) |  | 0.5 (≈ 1.31 µM) | 8 (≈ 20.9 µM) | > 65.4 |  |  | 
O=C1O/C(=C\C2CCCCC2)C(O)=C1c1ccc2ccccc2c1 | 8 (≈ 25 µM) |  | > 128 | 32 (≈ 99.9 µM) |  | ≤ 0.12 | 16 (≈ 49.9 µM) |  |  |  | 
COc1ccccc1-c1ccc(/C=C2\OC(O)=C(c3cc(Cl)cc(Cl)c3)C2=O)cc1OC | 8 (≈ 17 µM) | > 53.3 | 2 (≈ 4.26 µM) | 8 (≈ 17 µM) | 12.8 | 0.5 (≈ 1.07 µM) | 2 (≈ 4.26 µM) | 36.2 |  |  | 12.8
O=C1O/C(=C\c2cccc3ccccc23)C(O)=C1c1cccc(C(F)(F)F)c1 | 8 (≈ 20.9 µM) | > 65.4 | 8 (≈ 20.9 µM) | 16 (≈ 41.8 µM) |  | 0.5 (≈ 1.31 µM) | 8 (≈ 20.9 µM) | > 65.4 |  |  | 
O=C1O/C(=C\c2cccc(C(F)(F)F)c2)C(O)=C1c1cccc2ccccc12 | 32 (≈ 83.7 µM) | > 65.4 | 32 (≈ 83.7 µM) | > 128 | > 65.4 | 8 (≈ 20.9 µM) | 64 (≈ 167 µM) | > 65.4 |  |  | 
O=C1O/C(=C\c2cccc(-c3cccc(Cl)c3)c2)C(O)=C1c1cccc(Cl)c1 | 4 (≈ 9.77 µM) |  | > 128 | 8 (≈ 19.5 µM) |  | 1 (≈ 2.44 µM) | 1 (≈ 2.44 µM) |  |  |  | 
O=C1O/C(=C\c2cccc(-c3cc(Cl)cc(Cl)c3)c2)C(O)=C1c1cc(Cl)cc(Cl)c1 | 0.5 (≈ 1.05 µM) |  | 0.25 (≈ 0.523 µM) | 1 (≈ 2.09 µM) |  | 0.25 (≈ 0.523 µM) | 0.25 (≈ 0.523 µM) | 4.18 |  | 12.5 | 
COc1ccc(C2=C(O)O/C(=C\c3cccc(C(F)(F)F)c3)C2=O)cc1 | 64 (≈ 177 µM) | 69 | 1 (≈ 2.76 µM) | 128 (≈ 353 µM) | > 69 | 2 (≈ 5.52 µM) | 128 (≈ 353 µM) | > 69 |  |  | 38.6
O=C1O/C(=C\c2ccccc2-c2ccc(Cl)c(Cl)c2)C(O)=C1c1ccc(Cl)c(Cl)c1 | 0.5 (≈ 1.05 µM) |  | 0.5 (≈ 1.05 µM) | 1 (≈ 2.09 µM) |  | ≤ 0.12 | 0.25 (≈ 0.523 µM) | 6.27 | 37.6 | 10.5 | 
O=C1O/C(=C\c2ccccc2)C(O)=C1c1ccccc1 [PULVINONE] |  |  |  |  |  |  |  |  |  |  | ≤ 30.3
